Reference: a melting point compilation (Tetko et al.)

| Compound | melting point [°C] |
| --- | --- |
| OCc1ccc(Cn2cncn2)cc1 | 68 to 70 |
| Clc1cc2oc3c(Cl)c(Cl)ccc3c2cc1Cl | 195 |
| O=C(O)[C@@H]1CCN1C(=O)OCC1c2ccccc2-c2ccccc21 | 135 |
| COc1ccc(NN=c2c(C)nc3ccccc3[nH]c2=O)cc1 | 196 |
| CCCCC(CC)CO[N+](=O)[O-] (configuration not stated) | 75 |
| CC(=O)OC1CC[C@@]2(C)C(CC[C@@H]3[C@@H]2CC[C@@]2(C)[C@H]3CC[C@@]2(C#Cc2ccccc2)OC(C)=O)C1 (some centres not stated) | 166 |
| C#CCCCCCCCCC | -25 |
| Cc1cc(C)n2nc(SCc3ccccc3)nc2n1 | 135 to 136 |
| CCc1cccc2c1CCCC2 | -44.5 |
| NNc1ncc(C(=O)OCc2ccc(Cl)cc2)c(C(F)(F)F)n1 | 111 to 113 |
| CCCCCCCCCCCCCC=CC(O)C(N)CO (configuration not stated) | 81 to 82 |
| Clc1cccc(I)c1Cl | 35 |
| COP(=S)(OC)Oc1cc(Cl)c(I)cc1Cl | 76 |
| CCCCCCCCCCCCCC(CCCCCCCCCC)CCCCCCCCCC | 10.8 |
| CCCCCCCCCCCCCCCBr | 19 |
| Cc1cc(C)c2c(N)n[nH]c2n1 | 280 |
| CC1=CCC/C1=N\Nc1ccc([N+](=O)[O-])cc1[N+](=O)[O-] | 222 |
| O=C(O)c1nn(Cc2ccc(Cl)cc2Cl)c2ccccc12 | 207 |
| C1CC2OC2CC1C1CO1 (configuration not stated) | -109 |
| O=C1C=C(N2CC2)C(=O)C(N2CC2)=C1N1CC1 | 163 |
| O=C1C[C@@H](C(=O)O)c2ccccc21 | 113 |
| CCCCCCCCBr | -55 |
| C=COCCCCCCCCCCCCCCCC | 16 |
| Cc1ccc(C=C(C#N)C#N)cc1 | 132 to 133 |
| O=C(O)CC1(CC(=O)O)CCCCC1 | 181 to 185 |
| O=CC(C=O)c1ccc(C(=O)O)cc1[N+](=O)[O-] | 199 to 205 |
| O=[N+]([O-])c1ccccc1N1CSc2nnc(-c3cccnc3)n2C1 | 159 |

| Compound | melting point [°C] |
| --- | --- |
| NCc1csc2ccc(Br)cc12 | 37 to 38 |
| Cc1nc(-c2cccc(Br)c2)no1 | 81 to 83 |
| O=c1[nH]c2scc(-c3ccccc3)c2c(=O)n1-c1cccc(C(F)(F)F)c1 | 231 to 233 |
| NC(=O)C(=O)NC(c1ccccc1)C1(c2ccccc2)OCCO1 (configuration not stated) | 203 |
| O=S(=O)(C[C@@H](COCc1ccccc1)OCc1ccccc1)c1ccccc1 | 55 to 56 |
| C=C(C)c1ccc(C(C)C)cc1 | -30.6 |
| Cc1c(F)c(F)c(C)c(F)c1F | 36 |
| Cc1ccc(C2(C(=O)O)CCCCC2)cc1 | 166 to 170 |
| Clc1c(Cl)c(Cl)c2c(oc3c(Cl)c(Cl)c(Cl)c(Cl)c32)c1Cl | 258 |
| N#CSc1ccc([N+](=O)[O-])c(C(=O)O)c1 | 156 to 160 |
| O=[N+]([O-])c1ccccc1C(O)C(O)c1ccccc1 (configuration not stated) | 100 |
| COc1cc(C2Nn3c(nnc3-c3ccccc3OC)S2)ccc1O (configuration not stated) | 137 |
| COc1ccc(-c2nn3c(C)nnc3s2)cc1 | 177 |
| Cc1nc2scc(-c3ccccc3)c2c(=O)n1NC(=O)c1ccc(Cl)cc1 | 235 to 236 |
| CC(=O)OCC1OCC(OC(C)=O)(C2C=Nc3c2ncn(C2(OC(C)=O)COC(COC(C)=O)C2OC(C)=O)c3=O)C1OC(C)=O (configuration not stated) | 76 |
| N#CCCCCCN | -31.4 |
| COc1ccc(CCl)cc1 | 24.5 |
| CCCNC(=O)NNC(=O)OCC | 95 |
| OCCCC(Cl)(Cl)CO | 40 to 42 |
| Clc1ccc(-c2c(Cl)cc(Cl)cc2Cl)cc1 | 65 |
| CCc1c(C)[nH]c2c1C(=O)C(CN1CCOCC1)CC2 (configuration not stated) | 180 |
| CC1(C)C(C=C(Br)Br)C1C(=O)OC(C#N)c1cccc(Oc2ccccc2)c1 (configuration not stated) | 100 |
| CC(C)(C)C1=CC(=O)C(C(C)(C)C)=CC1=O | 153 |
| C#CC1(O)CCC2C3CCC4=C(CCC(=O)C4)C3CCC21C (configuration not stated) | 170 |
| Cc1noc(-c2ccccc2)c1C=O | 85 to 87 |
| C#CC1(O)CCC2C3CCC4=CC(=O)CCC4(C)C3CCC21C (configuration not stated) | 269 |
| CC(Cl)C(=O)Cl (configuration not stated) | -71 |

| Compound | melting point [°C] |
| --- | --- |
| Cn1nc2ccccc2c1C=O | 75 to 77 |
| CCCCCC(=O)OC1(C(C)=O)CCC2C3CCC4=CC(=O)CCC4C3CCC21C (configuration not stated) | 124 |
| O=C(O)Cc1ccc(CBr)cc1 | 179 |
| COc1cc2c(cc1OC)C1CC(=O)C(CC(C)C)CN1CC2 (configuration not stated) | 128 |
| Cn1c(-c2ccccc2)cc2ccccc21 | 99 |
| C=C(C)C1CC=C(C)CC1 (configuration not stated) | -74.3 |
| C1CCC2NCCCC2C1 (configuration not stated) | 37.5 to 45 |
| COc1cccc(F)c1 | -35 |
| NC(=O)C1CCN(CCCN2c3ccccc3Sc3ccc(Cl)cc32)CC1 | 139 |
| N#Cc1ccccc1OC1CCOCC1 | 51 to 55 |
| NC(=O)CF | 108 |
| Brc1ccc2occ(Br)c2c1 | 77 to 78 |
| Cc1ccc(C)c(CC(=O)O)c1 | 128 to 132 |
| O=[N+]([O-])c1ccc(O)c(CBr)c1 | 145 to 149 |
| CCCCCCCCCCCCCCC(Br)C(=O)O (configuration not stated) | 52 to 56 |
| COc1ccc(C2CNC(=O)C2)cc1OC1CCCC1 (configuration not stated) | 127 to 133 |
| CNC(=Nc1cc(C)ccn1)SC | 78 to 81 |
| Cn1ccc2c(C=O)cccc21 | 27 to 29 |
| Fc1ccccc1C1=NCC(=S)N(CC(F)(F)F)c2ccc(Cl)cc21 | 138 |
| NC(=S)c1ccncc1 | 201 |
| Fc1cc(Br)ccc1-c1ccccc1 | 40 |
| COC(=O)C=Cc1ccc(C=CC(=O)OC)c([N+](=O)[O-])c1 | 166 |
| CCP(=S)(CC)CC | 95 |
| CCO[Si](Cl)(Cl)OCC | -130 |
| CN1CCN(Cc2ccc(CO)cc2)CC1 | 96 to 98 |

Other lines, results leading:

| melting point [°C] | Compound |
| --- | --- |
| 273 to 275 | O=C(O)[C@@H]1Cc2ccc(O)cc2CN1 |
| 164 to 166 | Nc1cc(-c2ccc(F)cc2)nc(N)n1 |
| 100 | COc1ccc(Cl)cc1C#N |
| 208 | CC1(C)C(C=Cc2cc(Br)cc([N+](=O)[O-])c2[O-])=[N+](Cc2ccccc2)c2ccccc21 |
| 105 to 107 | COC(=O)c1cc(I)cc(C(=O)OC)c1 |
| -75 | CCC(C)c1ccccc1 (configuration not stated) |
| 74 | COC1=C(OC)C(C(CBr)OC(C)=O)OC1=O (configuration not stated) |
| 224 | Cn1[nH]c(N)c2c(=O)c(C(=O)O)cnc1-2 |
| 147 to 148 | Cc1ccc(C(N)=O)c(N)c1 |
| 81 | COC(=O)c1sc2ccccc2c1Cl |
| 113 | COC(=O)c1ccc(N)c(Cl)c1 |
| 153 | Cc1nccnc1O |
| 48 | C=CCc1cc(Cl)ccc1O |
| 162 | C=CCSc1nnc(-c2cc(Br)cc(Br)c2O)n1N |
| 301 to 303 | CCCCOc1ccc(/C=N/NC(=O)C(=O)N/N=C/c2ccc(OCCCC)cc2)cc1 |
| -27 | ClC(Cl)(Cl)CC(Cl)(Cl)Cl |
| 256 | Cc1cc(C)n2nc(N)c(/N=N/c3ccccc3C)c2n1 |
| 174 | CC(C)C1=CC2=CCC3C(C)(C(=O)O)CCCC3(C)C2CC1 (configuration not stated) |
| 82 | CCc1ssc(=O)c1-c1ccccc1 |
| 220 to 223 | COCc1cc(O)nc(S)n1 |
| 211 | O=C(Nc1cc(Cl)ccc1Cl)C(C(F)(F)F)C(F)(F)F |
| 144 | COc1ccc(C(=O)c2ccc(OC)cc2)cc1 |
| 85 | Cc1ccc(CCc2ccc(C)cc2)cc1 |
| 76 | c1cc(SSc2ccncc2)ccn1 |
| 93.5 | CC(NNC(=O)c1ccccc1)c1ccccc1 (configuration not stated) |
| 165 to 168 | N#Cc1cc(Cl)ccc1O |
| 173 | CN(C)c1nc(N(C)C)nc(N(C)C)n1 |

| melting point [°C] | Compound |
| --- | --- |
| 194 | NC(=O)C1(N2C(=O)c3cccc(Cl)c3C2=O)CCCCC1 |
| -62 | Cc1ccccc1F |
| 50 | CC(C)(C)C(O)C(C)(C)C |
| 321 | Cc1cc2c(C#N)c3n(C)c4ccccc4n3c(=O)c2c(C)n1 |
| 200 to 202 | O=C(c1ccc(Br)cc1)c1noc(-c2ccc([N+](=O)[O-])cc2)c1S(=O)(=O)c1ccccc1 |
| 158 | COc1ccccc1/C=C(\C#N)c1nc2ccccc2s1 |
| 208 to 210 | CC1(C)C(N)=[N+]([O-])C(c2ccccc2)N1O (configuration not stated) |
| 88 | CCOC(=O)C(C#N)=Cc1ccccc1Cl |
| 289 to 290 | O=CNC1CC=CCC(NC=O)CC=CC1 (configuration not stated) |
| 133 to 135 | O=C(COc1ncn(-c2ccc(Cl)cc2)n1)NNC(=S)NCc1ccccc1 |
| 237 to 238 | Cc1nc(-c2ccc(C(F)(F)F)cc2)sc1C(=O)O |
| 120 | O=C(Nc1nc(-c2ccc(Cl)cc2)cs1)c1ccccc1 |
| 236 | O=C(NN=CC=Cc1ccc([N+](=O)[O-])o1)c1ccc([N+](=O)[O-])s1 |
| 26 | O=C=N[Si](N=C=O)(N=C=O)N=C=O |
| 133 to 135 | N#Cc1cccc(N2CCOCC2)n1 |
| 89 to 94 | N#Cc1cc(Cl)ccc1[N+](=O)[O-] |
| 275 to 278 | NC1C2CCC(C2)C1C(=O)O (configuration not stated) |
| 82 to 88 | NC(=NO)c1cccc(C(F)(F)F)c1 |
| 270 | O=C(O)c1ccc[nH]c1=S |
| 78 | O=Cc1ccc2c(Br)cccc2c1 |
| 72 | COc1c(C)c(C)c(OC)c(Br)c1C |
| 207 | CCOC(=O)C1=C(C)NC(C)=C(C(=O)OCC)C1c1cccc(OC)c1O |
| 220 | CC(CCC(=O)O)C1CCC2C3C(O)CC4CC(O)CCC4(C)C3CC(=O)C12C (configuration not stated) |
| 99.5 | CC(=O)CC(=O)C(=O)O |
| 131 | NC(=S)c1ccc(F)cc1F |
| -80 | FC(F)(F)C(F)(F)C(Cl)(Cl)Cl |
